Measurements reported in patent publication US20250283872A1, “EXPRESSION SYSTEMS FOR THE ALPHA2ALPHA5BETA2 NICOTINIC ACETYLCHOLINE RECEPTOR AND METHODS OF USE THEREOF” (Janssen Pharmaceutica NV, priority 2021, published 2025).

Key:
α2α5β2 nAChR = α2α5β2 nAChR (Homo sapiens, UniProt P17787+P30532+Q15822)
Procedure: (§1) Then transfer the plate to 30° C. with 5% CO2 in a humidified atmosphere for 24-48 hours.

α2β2 nAChR = α2β2 nAChR (Homo sapiens, UniProt P17787+Q15822); settings: HEK293T cells; co-transfection with FAM163B or TMIE (plus SAT1+CHAT) versus SAT1+CHAT
α2β2 nAChR, sequence (Q15822 27-529): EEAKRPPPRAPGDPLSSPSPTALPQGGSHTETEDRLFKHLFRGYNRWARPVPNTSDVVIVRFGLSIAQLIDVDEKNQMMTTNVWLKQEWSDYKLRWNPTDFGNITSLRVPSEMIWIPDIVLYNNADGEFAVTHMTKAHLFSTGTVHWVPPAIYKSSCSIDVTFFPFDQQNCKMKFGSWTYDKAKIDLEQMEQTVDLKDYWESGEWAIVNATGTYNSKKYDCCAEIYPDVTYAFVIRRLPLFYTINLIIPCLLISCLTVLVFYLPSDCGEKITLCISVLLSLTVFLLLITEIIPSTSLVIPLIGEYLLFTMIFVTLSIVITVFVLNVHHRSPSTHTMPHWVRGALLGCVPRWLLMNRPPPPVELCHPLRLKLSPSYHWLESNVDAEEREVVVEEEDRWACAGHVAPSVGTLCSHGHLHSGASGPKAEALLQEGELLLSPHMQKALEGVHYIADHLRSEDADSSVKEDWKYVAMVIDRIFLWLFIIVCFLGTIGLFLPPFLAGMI
α2β2 nAChR, sequence (P17787 26-502): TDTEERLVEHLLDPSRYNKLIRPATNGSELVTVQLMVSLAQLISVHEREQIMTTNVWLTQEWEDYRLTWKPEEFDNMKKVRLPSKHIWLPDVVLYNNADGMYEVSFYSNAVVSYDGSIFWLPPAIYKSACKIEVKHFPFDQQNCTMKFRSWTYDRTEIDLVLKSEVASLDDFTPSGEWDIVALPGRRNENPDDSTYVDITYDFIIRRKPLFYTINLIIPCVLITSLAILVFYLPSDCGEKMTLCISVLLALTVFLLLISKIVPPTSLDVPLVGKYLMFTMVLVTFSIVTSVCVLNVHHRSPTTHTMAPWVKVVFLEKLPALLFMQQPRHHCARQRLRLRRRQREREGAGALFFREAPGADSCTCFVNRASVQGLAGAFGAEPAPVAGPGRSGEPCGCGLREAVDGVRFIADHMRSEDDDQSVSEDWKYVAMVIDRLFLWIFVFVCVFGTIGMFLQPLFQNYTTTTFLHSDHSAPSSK
Procedure: as §1

α2α5β2 nAChR, sequence (Q15822 27-529): as the sequence (Q15822 27-529) above
α2α5β2 nAChR, sequence (P30532 23-468): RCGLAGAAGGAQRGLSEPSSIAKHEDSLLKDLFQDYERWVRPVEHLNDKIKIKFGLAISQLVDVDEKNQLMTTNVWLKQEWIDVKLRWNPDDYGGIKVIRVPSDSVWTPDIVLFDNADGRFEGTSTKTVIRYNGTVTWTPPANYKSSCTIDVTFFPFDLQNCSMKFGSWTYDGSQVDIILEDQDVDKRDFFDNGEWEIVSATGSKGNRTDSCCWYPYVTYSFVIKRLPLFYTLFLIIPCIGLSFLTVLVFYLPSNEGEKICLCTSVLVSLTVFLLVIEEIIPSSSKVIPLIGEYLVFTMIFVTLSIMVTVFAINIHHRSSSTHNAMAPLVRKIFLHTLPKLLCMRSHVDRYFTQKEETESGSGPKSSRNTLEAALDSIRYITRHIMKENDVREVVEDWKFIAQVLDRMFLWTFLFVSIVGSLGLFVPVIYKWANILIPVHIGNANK
α2α5β2 nAChR, sequence (P17787 26-502): as the sequence (P17787 26-502) above

In the case of CN1CCCC1c1cccnc1 (stereo not drawn) [nicotine, Nicotine], the “nicotine potency (nicotine-evoked calcium flux, FIG. 2)” value (α2α5β2 nAChR; HEK293T cells, co-transfection with FAM163B or TMIE (plus SAT1+CHAT) versus SAT1+CHAT) is reported as “left shifted”, the “EC80 (nicotine-evoked α2α5β2 nAChR mediated calcium flux)” value (α2α5β2 nAChR; recombinant cells, Ca5 dye, FLIPR TETRA) is reported as 1000 nM and the “nicotine potency (nicotine-evoked calcium flux, FIG. 2)” value (α2β2 nAChR) is reported as “left shifted”.
